Test results published in patent US20150004704A1, “COMPOSITIONS AND METHODS FOR INCREASING OIL CONTENT IN ALGAE” (A.B. Seeds Ltd., priority 2009, published 2015).
Several values for one entry are separate records, joined by “and”; a condition that tells them apart may be missing. Identical values can stand only once.

How the values were obtained:
Assay type in all cases: cell-based
[1] = test system: Phaeodactylum tricornutum; assay: Oil content by Nile Red staining with hormone supplements (Example 3); conditions: 1 week, ratio to average of two controls, triplicate
Method: (§1) TX, and were grown at 22° C. under constant white light at an intensity of 175 micromole photon m^−2 s−1. Chlamydomonas reinhardtii (UTEX strain 90), Chlorella vulgaris (UTEX 2714) and Haematococcus pluvialis (UTEX strain 2505) were grown in TAP medium {Harris E H: The Chlamydomonas sourcebook: A comprehensive guide to biology and laboratory use. New-York: Academic Press; 1989}. Phaeodactylum tricornutum (UTEX strain 642) was grown in a modified LDM medium {Lewin, R. A., 1959. The isolation of algae. Rev. algol. no. 3: 182-197}.
(§2) Algal cells of Chlamydomonas reinhardtii, Phaeodactylum tricornutum and Haematococcus pluvialis, were each grown to a concentration of 10^5 cells/ml and divided into 7×250-ml flasks, each containing 50 ml medium with the following supplements (all values are final hormone concentrations):
(§3) IAA: 1.0 mg/liter, NAA: 1.0 mg/liter, 2,4-D: 1.0 mg/liter, 6-BAP: 0.1 mg/liter, and Kinetin: 0.1 mg/liter.
(§4) Oil content was measured in triplicate 1 week after addition of the hormones to the medium, using Nile Red staining: 200 μl of algal cells were placed in a 96-well plate (Costar 3596), mixed with 10 μl of Nile Red solution (N3013, Sigma. 1 mg/ml stock in acetone) and incubated for 10 minutes at room-temperature. Fluorescence was measured using a Thermo Electron Fluroskan Ascent with excitation at 485 nm and emission at 590 nm 200 μl of fresh growth media with 10 μl of Nile Red were used for blank measurements. Fluorescence was normalized against cell density as measured by an EL×808 microplate reader (BIOTEK Instruments Inc) at 630 nm and verified by cell count of selected samples. For each treatment the normalized oil content was defined as the oil content divided by the cell density. The average of the normalized oil content of the triplicates for each treatment was calculated. The effect of each treatment was determined by the ratio between the average of the normalized oil content and the average of the two control experiments.

[2] = test system: Chlamydomonas reinhardtii; assay: as above; conditions: 1 week, ratio to average of two controls, triplicate
Method: as §1, §2, §3, §4

[3] = test system: Haematococcus pluvialis; assay: as above; conditions: 1 week, ratio to average of two controls, triplicate
Method: as §1, §2, §3, §4

[4] = test system: Chlamydomonas reinhardtii; assay: Cell density (OD 450 nm), C. reinhardtii with hormone supplements (Example 2); conditions: 1 week after addition, duplicates
Method: (§5) Algae were grown to a concentration of 10^5 cells/ml and divided into 10×250-ml flasks, each containing 50 ml TAP medium with the following hormone supplements (all values are final hormone concentrations):
(§6) IAA: 0.5 mg/liter and 1 mg/liter, NAA: 0.5 mg/liter and 1 mg/liter, 6-BAP: 0.05 mg/liter and 0.1 mg/liter, and Kinetin: 0.05 mg/liter and 0.1 mg/liter. No supplement was added to Controls 1 and 2.
(§7) Oil content was measured, in duplicate, one week after addition of the hormones to the medium, using Nile Red staining. 200 μl of Chlamydomonas reinhardtii cells were placed in a 96-well plate (Costar 3596), mixed with 10 μl of Nile Red solution (N3013, Sigma. 1 mg/ml stock in acetone) and incubated for 15 minutes at room-temperature. Fluorescence was measured using a Thermo Electron Fluroskan Ascent with excitation at 544 nm and emission at 590 nm 200 μl of fresh growth media with 10 μl of Nile Red were used for blank measurements. Fluorescence was normalized against cell density as measured by an EL×808 microplate reader (BIOTEK Instruments Inc) at 450 nm and verified by cell count of selected samples.
(§8) The growth rate in each flask was estimated by measuring the OD (optical density, at 450 nm), which represents cell density. For each treatment the normalized oil content was defined as the oil content divided by the cell density. The average of the normalized oil content of the duplicates for each treatment was calculated. The effect of each treatment was determined by the ratio between the average of the normalized oil content and the average of the two control experiments.

[5] = test system: Chlamydomonas reinhardtii; assay: Oil content by Nile Red staining, C. reinhardtii with hormone supplements (Example 2); set-up: Oil content: unit not given here; conditions: for Oil content: Nile Red fluorescence; for Oil content / Normalized oil content: duplicates; for Average normalized oil content: average of duplicates; for Normalized oil content: oil content divided by cell density; for Effect: ratio of average normalized oil content to average of two controls
Method: as §1, §5, §6, §7, §8

| SMILES | Effect of addition of hormones to growth medium on oil content ([1]; supplement 1 mg/l) | Effect of addition of hormones to growth medium on oil content ([2]; supplement 1 mg/l) | Effect of addition of hormones to growth medium on oil content ([3]; supplement 1 mg/l) | Cell density ([4]; supplement 0.05 mg/l) | Cell density ([4]; supplement 0.1 mg/l) | Effect of addition of hormones to growth medium on oil content ([1]; supplement 0.1 mg/l) | Effect of addition of hormones to growth medium on oil content ([2]; supplement 0.1 mg/l) | Effect of addition of hormones to growth medium on oil content ([3]; supplement 0.1 mg/l) | Oil content ([5]; supplement 0.05 mg/l, 1 week) | Average normalized oil content ([5]; supplement 0.05 mg/l) | Normalized oil content ([5]; supplement 0.05 mg/l) | Effect ([5]; supplement 0.05 mg/l) | Oil content ([5]; supplement 0.1 mg/l, 1 week) | Average normalized oil content ([5]; supplement 0.1 mg/l) | Normalized oil content ([5]; supplement 0.1 mg/l) | Effect ([5]; supplement 0.1 mg/l) | Cell density ([4]; supplement 0.5 mg/l) | Cell density ([4]; supplement 1.0 mg/l) | Oil content ([5]; supplement 0.5 mg/l, 1 week) | Average normalized oil content ([5]; supplement 0.5 mg/l) | also measured |
| --- | --- | --- | --- | --- | --- | --- | --- | --- | --- | --- | --- | --- | --- | --- | --- | --- | --- | --- | --- | --- | --- |
| O=C(O)COc1ccc(Cl)cc1Cl [2,4-D, 2,4-dichlorophenoxy acetic acid] | 1.09 ± 0.04 | 1.21 ± 0.03 | 1.69 ± 0.51 | – | – | – | – | – | – | – | – | – | – | – | – | – | – | – | – | – | – |
| c1ccc(CNc2ncnc3nc[nH]c23)cc1 [6-BAP, 6-Benzylaminopurine] | – | – | – | 0.29 and 0.27 | 0.28 and 0.27 | 1.32 ± 0.20 | 1.22 ± 0.13 | 1.28 ± 0.20 | 2.709 and 2.587 | 9.41 | 9.28 and 9.55 | 1.29 ± 0.02 | 3.04 and 2.891 | 10.65 | 10.74 and 10.55 | 1.46 ± 0.02 | – | – | – | – | – |
| O=C(O)Cc1c[nH]c2ccccc12 [IAA, Indole-3-acetic acid] | 0.97 ± 0.04 | 1.05 ± 0.11 | 0.96 ± 0.15 | – | – | – | – | – | – | – | – | – | – | – | – | – | 0.29 and 0.26 | 0.33 and 0.30 | 2.747 and 2.748 | 10.17 | Normalized oil content ([5]; supplement 0.5 mg/l): 9.57 and 10.78; Effect ([5]; supplement 0.5 mg/l): 1.39 ± 0.11; Oil content ([5]; supplement 1.0 mg/l, 1 week): 3.283 and 3.635; Average normalized oil content ([5]; supplement 1.0 mg/l): 10.92; Normalized oil content ([5]; supplement 1.0 mg/l): 9.89 and 11.96; Effect ([5]; supplement 1.0 mg/l): 1.49 ± 0.20 |
| c1coc(CNc2ncnc3[nH]cnc23)c1 [Kinetin] | – | – | – | 0.31 and 0.28 | 0.29 and 0.27 | 1.19 ± 0.02 | 1.23 ± 0.03 | 1.09 ± 0.03 | 3.023 and 3.071 | 10.47 | 9.85 and 11.09 | 1.43 ± 0.12 | 3.503 and 3.38 | 12.24 | 11.91 and 12.57 | 1.67 ± 0.06 | – | – | – | – | increase compared to controls (oil content) ([5]; 0.1 mg/liter, 1 week, maximum effect): 67% |
| O=C(O)Cc1cccc2ccccc12 [NAA, α-Naphthaleneacetic acid] | 0.90 ± 0.07 | 0.99 ± 0.01 | 1.49 ± 0.35 | – | – | – | – | – | – | – | – | – | – | – | – | – | 0.32 and 0.29 | 0.31 and 0.30 | 2.677 and 2.59 | 8.67 | Normalized oil content ([5]; supplement 0.5 mg/l): 8.44 and 8.90; Effect ([5]; supplement 0.5 mg/l): 1.19 ± 0.04; Oil content ([5]; supplement 1.0 mg/l, 1 week): 3.059 and 3.232; Average normalized oil content ([5]; supplement 1.0 mg/l): 10.36; Normalized oil content ([5]; supplement 1.0 mg/l): 9.84 and 10.88; Effect ([5]; supplement 1.0 mg/l): 1.42 ± 0.10 |
